Source: paper PMC5468247, “Development of a selective agonist for relaxin family peptide receptor 3” (Scientific Reports, 2017)

Tests used:
human RXFP3 [1] = target: T1, human RXFP3 (Homo sapiens, UniProt Q9NSD7); experiment: Receptor binding assay, NanoLuc-conjugated R3/I5 tracer competition; details: for binding potency towards RXFP3, in words: compared with R3/I5
T1 construct: expressed in transfected cells; host or cells: HEK293T
T1 sequence (Q9NSD7 1-469): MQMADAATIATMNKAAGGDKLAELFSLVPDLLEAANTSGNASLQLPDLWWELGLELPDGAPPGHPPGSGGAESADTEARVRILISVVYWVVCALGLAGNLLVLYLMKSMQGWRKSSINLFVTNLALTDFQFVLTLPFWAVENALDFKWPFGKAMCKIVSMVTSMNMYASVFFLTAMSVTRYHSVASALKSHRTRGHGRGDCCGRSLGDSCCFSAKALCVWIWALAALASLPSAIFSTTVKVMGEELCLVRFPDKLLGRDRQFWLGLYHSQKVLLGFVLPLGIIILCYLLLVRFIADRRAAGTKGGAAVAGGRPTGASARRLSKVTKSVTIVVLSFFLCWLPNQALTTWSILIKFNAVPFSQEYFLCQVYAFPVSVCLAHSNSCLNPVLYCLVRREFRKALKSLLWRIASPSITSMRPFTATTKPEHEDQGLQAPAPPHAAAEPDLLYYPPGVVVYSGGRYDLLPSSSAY
Protocol: (§1) Specific binding data are expressed as means ± SE (n = 3) and fitted to sigmoidal curves using SigmaPlot 10.0 software.
(§2) Briefly, HEK293T cells were transiently transfected with an expression construct of human RXFP3 or human RXFP4. On the next day, transfected cells were trypsinised, seeded into 96-well plates, and continuously cultured for 24–36 h to ~100% confluence. […] After incubation at 21 °C for 2 h, binding solution was removed and cells were washed twice with ice-cold phosphate-buffered saline (200 μl/well for each wash). Thereafter, cells were lysed by lysis solution (100 μl/well, Promega, Madison, WI, USA) and cell lysates were transferred to a white opaque 96-well plate (50 μl/well). After mixing with freshly diluted substrate (50 μl/well), bioluminescence was immediately measured on a SpectraMax M5 plate reader (Molecular Devices, Sunnyvale, CA, USA) in luminescence mode. […] The calculated specific binding data were expressed as means ± standard error (SE; n = 3) and fitted to sigmoidal curves using SigmaPlot 10.0 software.

human RXFP4 [2] = target: T2, human RXFP4 (Homo sapiens, UniProt Q8TDU9); experiment: as above; details: compared with R3/I5
T2 construct: expressed in transfected cells; host or cells: HEK293T
Protocol: as §1, §2

human RXFP3 [3] = target: T1, human RXFP3; experiment: Receptor activation assay, CRE-controlled NanoLuc reporter; type: cell-based; details: for fold lower activation potency towards RXFP3 compared with R3/I5: CRE-NanoLuc reporter, human RXFP3, relative to R3/I5; for fold higher activation potency towards RXFP3 than towards RXFP4: selectivity RXFP3 over RXFP4, from activation assays
From the text: (§3) HEK293T cells transiently cotransfected with a CRE-controlled NanoLuc reporter vector and the expression construct of human RXFP3 or human RXFP4 were used for activation assays. The measured bioluminescence data are expressed as means ± SE (n = 3) and fitted to sigmoidal or linear curves using SigmaPlot 10.0.
(§4) Briefly, HEK293T cells were transiently cotransfected with the NanoLuc reporter vector pNL1.2/CRE and the expression construct of human RXFP3 or human RXFP4. On the next day, transfected cells were trypsinised, seeded into 96-well plates, and continuously cultured for 24–36 h to ~90% confluence. To initiate activation assays, medium was removed and activation solution (serum-free DMEM medium plus 1% bovine serum albumin) containing 1.0 μM of forskolin and various concentrations of peptide was added (100 μl/well). After continuous culturing at 37 °C for 4 h, activation solution was removed and cells were lysed with lysis solution (100 μl/well, Promega). Cell lysates were then transferred to a white opaque 96-well plate (50 μl/well), mixed with freshly diluted substrate (50 μl/well), and bioluminescence was immediately measured on a SpectraMax M5 plate reader (Molecular Devices) in luminescence mode. The measured data were expressed as means ± SE (n = 3) and fitted to sigmoidal or linear curves using SigmaPlot 10.0 software.

human RXFP4 [4] = target: T2, human RXFP4; experiment: as above; type: cell-based; details: relative to R3/I5
From the text: as §3, §4

T2 sequence (Q8TDU9 whole entry): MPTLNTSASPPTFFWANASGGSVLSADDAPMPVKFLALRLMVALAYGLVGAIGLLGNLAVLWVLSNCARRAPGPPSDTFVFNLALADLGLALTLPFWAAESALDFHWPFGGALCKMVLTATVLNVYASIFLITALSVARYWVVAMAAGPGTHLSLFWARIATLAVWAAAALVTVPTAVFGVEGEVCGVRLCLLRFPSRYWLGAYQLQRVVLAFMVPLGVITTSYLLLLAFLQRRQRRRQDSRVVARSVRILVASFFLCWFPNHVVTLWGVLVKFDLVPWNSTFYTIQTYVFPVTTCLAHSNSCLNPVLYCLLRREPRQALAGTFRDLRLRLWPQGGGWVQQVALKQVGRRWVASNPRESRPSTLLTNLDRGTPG

Compound	binding potency towards RXFP3, in words (human RXFP3 [1])	binding potency towards RXFP4, in words (human RXFP4 [2])	fold lower activation potency towards RXFP3 compared with R3/I5 (human RXFP3 [3])	fold lower activation potency towards RXFP4 compared with R3/I5 (human RXFP4 [4])	fold lower binding potency for RXFP3 compared with R3/I5 (human RXFP3 [1]; relative to R3/I5)	fold higher activation potency towards RXFP3 than towards RXFP4 (human RXFP3 [3])
CC[C@H](C)[C@@H]1NC(=O)[C@H](Cc2ccccc2)NC(=O)[C@H](CCC(=O)O)NC(=O)[C@H](CCCNC(=N)N)NC(=O)CNC(=O)[C@@H](NC(=O)[C@H](CC(C)C)NC(=O)[C@H](CCCNC(=N)N)NC(=O)[C@@H](NC(=O)CNC(=O)[C@H](Cc2ccc(O)cc2)NC(=O)[C@@H]2CCCN2C(=O)[C@H](C)NC(=O)[C@H](C)NC(=O)[C@H](CCCNC(=N)N)NC(=O)[C@@H]2CCC(=O)N2)C(C)C)CSSC[C@@H]2NC(=O)[C@@H](NC(=O)[C@H](CC(C)C)NC(=O)[C@@H](NC(=O)[C@H](CCC(N)=O)NC(=O)[C@H](CC(C)C)NC(=O)[C@H](CC(=O)O)NC(=O)[C@H](CCC(N)=O)NC(=O)[C@H](CCCNC(=N)N)NC(=O)[C@H](CO)NC(=O)[C@H](CCCNC(=N)N)NC(=O)[C@H](CCCNC(=N)N)NC(=O)[C@H](CO)NC(=O)[C@@H](N)CCCNC(=N)N)[C@@H](C)O)CSSC[C@H](NC(=O)CNC(=O)[C@H](CC(=O)O)NC(=O)[C@H]([C@@H](C)O)NC2=O)C(=O)N[C@@H](CO)C(=O)N[C@@H](CCSC)C(=O)N[C@@H]([C@@H](C)O)C(=O)N[C@@H](CC(=O)O)C(=O)N[C@@H](CC(C)C)C(=O)N[C@@H](CO)C(=O)N[C@@H](C)C(=O)N[C@@H](CC(C)C)C(=O)N[C@H](C(=O)O)CSSC[C@@H](C(=O)N[C@@H](CCCNC(=N)N)C(=O)N[C@@H](Cc2c[nH]c3ccccc23)C(=O)O)NC(=O)[C@H]([C@@H](C)O)NC(=O)[C@H](Cc2ccccc2)NC(=O)[C@H]([C@@H](C)CC)NC(=O)[C@H](C(C)C)NC(=O)[C@H](C)NC(=O)[C@H](CCCNC(=N)N)NC1=O [[∆B23-25]R3/I5]	almost normal binding potency	almost normal binding potency	~ 30 fold	~ 30 fold		
CC[C@H](C)[C@@H]1NC(=O)[C@H](Cc2ccccc2)NC(=O)[C@H](CCC(=O)O)NC(=O)[C@H](CCCNC(=N)N)NC(=O)CNC(=O)[C@@H](NC(=O)[C@H](CC(C)C)NC(=O)[C@H](CCCNC(=N)N)NC(=O)[C@@H](NC(=O)CNC(=O)[C@H](Cc2ccc(O)cc2)NC(=O)[C@@H]2CCCN2C(=O)[C@H](C)NC(=O)[C@H](C)NC(=O)[C@H](CCCNC(=N)N)NC(=O)[C@@H]2CCC(=O)N2)C(C)C)CSSC[C@@H]2NC(=O)[C@@H](NC(=O)[C@H](CC(C)C)NC(=O)[C@@H](NC(=O)[C@H](CCC(N)=O)NC(=O)[C@H](CC(C)C)NC(=O)[C@H](CC(=O)O)NC(=O)[C@H](CCC(N)=O)NC(=O)[C@H](CCCNC(=N)N)NC(=O)[C@H](CO)NC(=O)[C@H](CCCNC(=N)N)NC(=O)[C@H](CCCNC(=N)N)NC(=O)[C@H](CO)NC(=O)[C@@H](N)CCCNC(=N)N)[C@@H](C)O)CSSC[C@H](NC(=O)CNC(=O)[C@H](CC(=O)O)NC(=O)[C@H]([C@@H](C)O)NC2=O)C(=O)N[C@@H](CO)C(=O)N[C@@H](CCSC)C(=O)N[C@@H]([C@@H](C)O)C(=O)N[C@@H](CC(=O)O)C(=O)N[C@@H](CC(C)C)C(=O)N[C@@H](CO)C(=O)N[C@@H](C)C(=O)N[C@@H](CC(C)C)C(=O)N[C@H](C(=O)O)CSSC[C@@H](C(=O)NCC(=O)N[C@@H](CO)C(=O)N[C@@H](CCCNC(=N)N)C(=O)N[C@@H](Cc2c[nH]c3ccccc23)C(=O)O)NC(=O)[C@H]([C@@H](C)O)NC(=O)[C@H](Cc2ccccc2)NC(=O)[C@H]([C@@H](C)CC)NC(=O)[C@H](C(C)C)NC(=O)[C@H](C)NC(=O)[C@H](CCCNC(=N)N)NC1=O [[∆B23]R3/I5]	retained considerable binding potency	retained considerable binding potency	~ 300 fold	~ 300 fold		
CC[C@H](C)[C@@H]1NC(=O)[C@H](Cc2ccccc2)NC(=O)[C@H](CCC(=O)O)NC(=O)[C@H](CCCNC(=N)N)NC(=O)CNC(=O)[C@@H](NC(=O)[C@H](CC(C)C)NC(=O)[C@H](CCCNC(=N)N)NC(=O)[C@@H](NC(=O)CNC(=O)[C@H](Cc2ccc(O)cc2)NC(=O)[C@@H]2CCCN2C(=O)[C@H](C)NC(=O)[C@H](C)NC(=O)[C@H](CCCNC(=N)N)NC(=O)[C@@H]2CCC(=O)N2)C(C)C)CSSC[C@@H]2NC(=O)[C@@H](NC(=O)[C@H](CC(C)C)NC(=O)[C@@H](NC(=O)[C@H](CCC(N)=O)NC(=O)[C@H](CC(C)C)NC(=O)[C@H](CC(=O)O)NC(=O)[C@H](CCC(N)=O)NC(=O)[C@H](CCCNC(=N)N)NC(=O)[C@H](CO)NC(=O)[C@H](CCCNC(=N)N)NC(=O)[C@H](CCCNC(=N)N)NC(=O)[C@H](CO)NC(=O)[C@@H](N)CCCNC(=N)N)[C@@H](C)O)CSSC[C@H](NC(=O)CNC(=O)[C@H](CC(=O)O)NC(=O)[C@H]([C@@H](C)O)NC2=O)C(=O)N[C@@H](CO)C(=O)N[C@@H](CCSC)C(=O)N[C@@H]([C@@H](C)O)C(=O)N[C@@H](CC(=O)O)C(=O)N[C@@H](CC(C)C)C(=O)N[C@@H](CO)C(=O)N[C@@H](C)C(=O)N[C@@H](CC(C)C)C(=O)N[C@H](C(=O)O)CSSC[C@@H](C(=O)NCC(=O)N[C@H](C(=O)N[C@@H](CO)C(=O)N[C@@H](CCCNC(=N)N)C(=O)N[C@@H](Cc2c[nH]c3ccccc23)C(=O)O)C(C)C)NC(=O)[C@H]([C@@H](C)O)NC(=O)[C@H](Cc2ccccc2)NC(=O)[C@H]([C@@H](C)CC)NC(=O)[C@H](C(C)C)NC(=O)[C@H](C)NC(=O)[C@H](CCCNC(=N)N)NC1=O [[G(B24)V]R3/I5]			~ 10 fold		~ 5 fold	~ 10 fold
CC[C@H](C)[C@@H]1NC(=O)[C@H](Cc2ccccc2)NC(=O)[C@H](CCC(=O)O)NC(=O)[C@H](CCCNC(=N)N)NC(=O)CNC(=O)[C@@H](NC(=O)[C@H](CC(C)C)NC(=O)[C@H](CCCNC(=N)N)NC(=O)[C@@H](NC(=O)CNC(=O)[C@H](Cc2ccc(O)cc2)NC(=O)[C@@H]2CCCN2C(=O)[C@H](C)NC(=O)[C@H](C)NC(=O)[C@H](CCCNC(=N)N)NC(=O)[C@@H]2CCC(=O)N2)C(C)C)CSSC[C@@H]2NC(=O)[C@@H](NC(=O)[C@H](CC(C)C)NC(=O)[C@@H](NC(=O)[C@H](CCC(N)=O)NC(=O)[C@H](CC(C)C)NC(=O)[C@H](CC(=O)O)NC(=O)[C@H](CCC(N)=O)NC(=O)[C@H](CCCNC(=N)N)NC(=O)[C@H](CO)NC(=O)[C@H](CCCNC(=N)N)NC(=O)[C@H](CCCNC(=N)N)NC(=O)[C@H](CO)NC(=O)[C@@H](N)CCCNC(=N)N)[C@@H](C)O)CSSC[C@H](NC(=O)CNC(=O)[C@H](CC(=O)O)NC(=O)[C@H]([C@@H](C)O)NC2=O)C(=O)N[C@@H](CO)C(=O)N[C@@H](CCSC)C(=O)N[C@@H]([C@@H](C)O)C(=O)N[C@@H](CC(=O)O)C(=O)N[C@@H](CC(C)C)C(=O)N[C@@H](CO)C(=O)N[C@@H](C)C(=O)N[C@@H](CC(C)C)C(=O)N[C@H](C(=O)O)CSSC[C@@H](C(=O)NCC(=O)N[C@H](C(=O)N[C@@H](CO)C(=O)N[C@@H](CCCNC(=N)N)C(=O)N[C@@H](Cc2c[nH]c3ccccc23)C(=O)O)[C@@H](C)O)NC(=O)[C@H]([C@@H](C)O)NC(=O)[C@H](Cc2ccccc2)NC(=O)[C@H]([C@@H](C)CC)NC(=O)[C@H](C(C)C)NC(=O)[C@H](C)NC(=O)[C@H](CCCNC(=N)N)NC1=O [[G(B24)T]R3/I5]			~ 20 fold			~ 2 fold
